The values below come from PMC10313180, “Structure snapshots reveal the mechanism of a bacterial membrane lipoprotein N-acyltransferase” (Science Advances, 2023).

No end group written: not given here. *: point of attachment. dipalmitoylglyceryl = dipalmitoylglyceryl (diacylglyceryl moiety on the cysteine); Palmitoyl = CCCCCCCCCCCCCCCC(=O)*

In assay [1] the target is T1, LntEco (Escherichia coli, UniProt P23930).
T1 construct: gene lnt; full length, N-terminal thrombin-cleavable His6 tag, pET28a, expressed in E. coli C43(DE3); membrane protein in LMNG or DDM micelles; 57 kDa; HA-treated for GPL specificity assay
The assay is described as follows: TLC of FP2 to FP3 conversion. Type of assay: biochemical. Conditions: acyl donor, HA-treated enzyme; 500 uM GPL, 150 uM FP2, pH 7.5, 37 C, 90 min.

Assay [2] has as its target T2, LntPae (Pseudomonas aeruginosa, UniProt Q9ZI86).
T2 construct: gene lnt; full length, N-terminal thrombin-cleavable His6 tag, pET28a, expressed in E. coli C41(DE3); membrane protein in LMNG micelles or cubic mesophase
T2 sequence (Q9ZI86 1-511): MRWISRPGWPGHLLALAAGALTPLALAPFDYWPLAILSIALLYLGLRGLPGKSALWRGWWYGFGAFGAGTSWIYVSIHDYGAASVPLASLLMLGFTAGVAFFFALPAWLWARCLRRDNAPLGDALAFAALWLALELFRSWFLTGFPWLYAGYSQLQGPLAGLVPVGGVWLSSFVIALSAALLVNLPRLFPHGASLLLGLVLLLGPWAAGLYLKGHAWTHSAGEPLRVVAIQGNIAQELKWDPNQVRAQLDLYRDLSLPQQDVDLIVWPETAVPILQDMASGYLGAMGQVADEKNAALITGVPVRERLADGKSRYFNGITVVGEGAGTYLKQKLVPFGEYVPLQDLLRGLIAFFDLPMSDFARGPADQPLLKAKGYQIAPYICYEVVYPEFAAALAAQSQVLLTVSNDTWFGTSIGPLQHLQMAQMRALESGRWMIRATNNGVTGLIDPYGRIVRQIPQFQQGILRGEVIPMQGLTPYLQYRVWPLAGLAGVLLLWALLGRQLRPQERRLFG
The assay can be described thus: TLC of FP2 to FP3 conversion. It is filed as biochemical. Conditions: acyl donor, HA-treated enzyme; 500 uM GPL, 150 uM FP2, pH 7.5, 37 C, 90 min.

Assay [3] deals with T1, LntEco. The assay can be described thus: X-ray crystallography (in surfo). Type of assay: binding. Conditions: covalent; dithiocarbamate at catalytic Cys387; lyso-PE also bound; 2.66 A.
For assay [4], the target named is T2, LntPae. The assay can be described thus: X-ray crystallography (in meso). Type of assay: binding. To be noted: covalent; at catalytic Cys382; two monooleins in pocket; 2.6 A.
Assay [5] addresses T3, LntEco Cys387Ala (apolipoprotein N-acyltransferase from E. coli, inactive mutant) (E. coli, UniProt P23930 1-512, Cys387Ala).
T3 construct: Apolipoprotein N-acyltransferase Lnt, E. coli, 57-kDa membrane protein; gene synthesized and cloned into pET28a (Nde I/Xho I); residues counted in E. coli numbering; The His6 tag is thrombin-cleavable; no cleavage step is described; In a detergent micelle (LMNG); also called Lnt Cys387Ala; C387A; source: E. coli C43(DE3), purified (Ni-NTA, Superdex 200) in LMNG
The assay is described as follows: cryo-EM structure; Lnt mutant (16 mg/ml) incubated with Pam3CSK4 or FP2 (10 mg/ml in DMSO) for 1 hour at 21°C, then Superdex 200 10/300 Increase in 20 mM sodium citrate pH 6, 150 mM NaCl, 0.001% LMNG; protein in a detergent micelle. To be noted: both partners purified.

With `CCCCCCCC/C=C\CCCCCCCC(=O)O[C@H](COC(=O)CCCCCCCCCCCCCCC)COP(=O)(O)OCCN` [POPE, palmitoyloleoylphosphatidylethanolamine], the “TLC of FP2 to FP3 conversion” value at LntEco [1] is “(POPE) were effective acyl donors for LntEco and LntPae”; on LntPae [2], “(POPE) were effective acyl donors for LntEco and LntPae”.

Consider `CCCCCCCC/C=C\CCCCCCCC(=O)O[C@H](COC(=O)CCCCCCCCCCCCCCC)COP(=O)(O)OCC(O)CO` (stereo partly shown) [POPG, palmitoyloleoylphosphatidylglycerol], for which the “TLC of FP2 to FP3 conversion” value on LntEco [1] was “palmitoyloleoylphosphatidylglycerol (POPG) and palmitoyloleoylphosphatidylethanolamine (POPE) were effective acyl donors for LntEco”; at LntPae [2] it was “(POPE) were effective acyl donors for LntEco and LntPae”.

As for `CCCCCCCCCCCCCCN=C=S` [TITC, tetradecyl-1-isothiocyanate], the “X-ray crystallography (in surfo)” value on LntEco [3] is “Crystals of the TITC-modified protein (Lnt-TITC), grown in the presence of E. coli GPLs”. In addition, on LntPae [4], the “X-ray crystallography (in meso)” value was “a structure of the TITC-modified LntPae was obtained with two monooleins in the binding pocket”.

B1: Pam3CSK4, Cys(Pam3)-Ser-(Lys)4 (peptide)
peptide: Palmitoyl-C(dipalmitoylglyceryl)SKKKK
notes: Printed in three-letter code: Cys-Ser-Lys-Lys-Lys-Lys; triacylated bacterial lipoprotein peptide analog; Triacylated lipopeptide; also called TA-BLPtide product; BLPtide; source: synthetic peptide (commercial or in-house synthesized BLP peptide analog)
Take B1: in assay [5], the binding result is reported as “binds”.
